# Measured values: publication PMC9949698, “Visible-Light-Controlled Histone Deacetylase Inhibitors for Targeted Cancer Therapy” (Journal of Medicinal Chemistry, 2023)
# pIC50: −log10 of the molar value. Like-named read-outs stand apart in the source and are kept apart here.
# Experiments:
# [1] = tested on: HeLa cells; assay: HeLa cell viability, MTS assay, dark or preillumination; type: cell-based; conditions: for pIC50: Homo sapiens, HeLa; for IC50(dark)/IC50(light): Table 5; for viability decreasing to: under illumination
# Experimental: We then proceeded to evaluate the effect of the compounds in a viability assay against HeLa cells.
# (§1) HeLa, MCF7, and HT29 cells were maintained in adherent cultures in DMEM supplemented with 10% FBS. KG1 cells were maintained in a suspension culture in IMDM supplemented with 20% FBS.
# Stock solutions of the compounds were heated to 60 or 80 °C to obtain solutions with the maximum amount of the trans isomer (dark). […] The solutions were then serially diluted with DMEM to give 20 times the desired final concentration, maintaining DMSO at 10%.
# Cells were seeded in 96-well black flat bottom plates with a clear bottom at a density of 5 × 10^3 cells/well (HeLa) or 1 × 10^4 cells/well (MCF7, HT29, and KG1), in a volume of 95 μL.
# (§2) Viability of HeLa, MCF7, and […] cells was determined with a CellTiter 96 assay (Promega), according to the manufacturer’s instructions. Briefly, 20 μL of CellTiter 96 reagent was added to each well, the plates were incubated at 37 °C for 2 h, and the absorbance at 490 nm was recorded. Viability is expressed as a percentage with respect to the nontreated cells.
# [2] = tested on: KG1 cells; assay: KG1 cell viability, CellTiterGlo assay, 50 μM; type: cell-based; conditions: 48 h; for effect on viability when preilluminated: preilluminated (380 or 550 nm)
# Experimental: (§3) HDACis have been proposed as a potential therapeutic strategy against cancer stem cells (CSCs).[39],[40] We selected three cell lines that have a strong CSC phenotype (HT29,[41],[42] MCF7[43]−[45] and KG1[46]) and tested the best compounds at 50 μM under dark and illumination conditions.
# as §1
# (§4) Stock solutions of the compounds were heated to 60 or 80 °C to obtain solutions with the maximum amount of the trans isomer (dark). For the “light” solutions, the stock solutions were illuminated with 96-well LED array plates for 3 min at the maximum potency. The solutions were then serially diluted with DMEM to give 20 times the desired final concentration, maintaining DMSO at 10%.
# (§5) Cells were seeded in 96-well black flat bottom plates with a clear bottom at a density of 5 × 10^3 cells/well (HeLa) or 1 × 10^4 cells/well (MCF7, HT29, and KG1), in a volume of 95 μL. After 24 h, 5 μL of compound solutions (20×) were added. Cells were incubated for 48 h.
# Viability of KG1 cells was determined with a CellTiter-Glo (Promega) assay, according to the manufacturer’s instructions. Briefly, 100 μL of CellTiter-Glo reagent was added to each well, the plates were kept at room temperature for 10 min, and the luminescence was recorded. Viability is expressed as a percentage with respect to the nontreated cells.
# [3] = E/Z composition under light or temperature conditions by HPLC; type: physicochemical
# [4] = tested on: MCF7 cells; assay: MCF7 cell viability, MTS assay, 50 μM; type: cell-based; conditions: 48 h; for effect on viability when preilluminated: preilluminated (380 or 550 nm)
# Experimental: as §3, §1, §4, §5, §2
# [5] = UV–vis spectra and optimal isomerization wavelengths; type: physicochemical; conditions: for λcis (optimal wavelength trans to cis) / λtrans (optimal wavelength cis to trans): UV–vis at 25–50 μM in DMSO, Teleopto plates (Table 1)
# Experimental: Ultraviolet–visible (UV–vis) spectra were recorded using a Tecan Spark 20M Multimode Microplate reader. Samples (200 μL of compound solution/well) were prepared at […] in DMSO. Samples were measured between 300 and 800 nm with 2 nm fixed intervals in 96-well transparent plates. Illumination at different wavelengths was performed for 2 min using 96-well LED array plates (LEDA Teleopto) placed below the samples. […] Potencies were measured using a Thorlabs PM100D power energy meter connected with a standard photodiode power sensor (S120VC).
# [6] = tested on: HT29 cells; assay: HT29 cell viability, MTS assay, 50 μM; type: cell-based; conditions: 48 h; for effect on viability when preilluminated: preilluminated (380 or 550 nm)
# Experimental: as §3, §1, §4, §5, §2
# [7] = molecular target: T1, human recombinant HDAC1 (Homo sapiens, UniProt Q13547); assay: Fluorogenic assay with human recombinant HDAC1, dark or illumination; type: biochemical; conditions: for activity at the highest tested concentration in the dark: 10 μM; for IC50 under illumination, in words: continuous illumination
# T1 construct: purchased BPS Bioscience
# Experimental: To study the inhibition of HDAC enzymes by the compounds, we used a fluorogenic assay with human recombinant HDAC1.[32] The enzyme was incubated with an acetylated substrate and each inhibitor for 1 h at room temperature, under either dark or light conditions. We opted for illumination throughout the incubation period to maintain the maximum proportion of cis under light conditions. […] Then, the deacetylated substrate generated a fluorescent coumarin after incubation of the mixture with trypsin at 37 °C for 20 min.
# Stock solutions of the compounds were diluted to 1 mM in DMSO and then heated to 60 or 80 °C to obtain solutions with the maximum amount of the trans isomer (dark). […] The 1 mM solutions were then serially diluted with HDAC buffer to 10 times the desired concentration, maintaining DMSO at 10%.
# In control wells without the compound, inhibitor, or enzyme, HDAC buffer was added instead. […] Then, 50 μL of the stop solution was added and the plates were incubated at 37 °C for 20 min in the dark. Fluorescence was measured at a λem of 460 nm and a λex of 380 nm. Enzyme activity is expressed as a percentage with respect to the nontreated cells, after subtracting the blank (well with no enzyme and no compound).
# [8] = cited from earlier work
# [9] = UV–vis spectra and optimal isomerization wavelengths; type: physicochemical; conditions: 25–50 μM in DMSO, using CoolLed at 217 mW/cm^2 instead of Teleopto plates
# [10] = preillumination 550 nm, 48 h, read-out: IC50 light (concentration that reduces cell viability by half)
# [11] = HPLC at isosbestic point (290–336 nm), 100 μM in DMSO after illumination with λcis (Table 3)
# [12] = HPLC at isosbestic point (290–336 nm), 100 μM in DMSO after illumination with λtrans (Table 3)
# [13] = UV–vis spectra at 25–100 μM in DMSO (Table 3)
# [14] = continuous illumination 550 nm (Table 4), read-out: IC50 light
# [15] = dark (Table 4), read-out: IC50 dark
# [16] = preillumination 380 nm, 48 h, read-out: IC50 light (concentration that reduces cell viability by half)
# [17] = HPLC at isosbestic point (310–338 nm), 100 μM in DMSO after illumination with λcis (Table 1)
# [18] = HPLC at isosbestic point (310–338 nm), 100 μM in DMSO after illumination with λtrans (Table 1)
# [19] = UV–vis spectra at 25–50 μM in DMSO (Table 1)
# [20] = dark vs 365 or 380 nm (Table 2), fold
# [21] = dark, 1 h at room temperature (Table 2), read-out: IC50 dark
# [22] = illumination 365 or 380 nm, 1 h at room temperature (Table 2), read-out: IC50 light
# T1 sequence (Q13547 whole entry): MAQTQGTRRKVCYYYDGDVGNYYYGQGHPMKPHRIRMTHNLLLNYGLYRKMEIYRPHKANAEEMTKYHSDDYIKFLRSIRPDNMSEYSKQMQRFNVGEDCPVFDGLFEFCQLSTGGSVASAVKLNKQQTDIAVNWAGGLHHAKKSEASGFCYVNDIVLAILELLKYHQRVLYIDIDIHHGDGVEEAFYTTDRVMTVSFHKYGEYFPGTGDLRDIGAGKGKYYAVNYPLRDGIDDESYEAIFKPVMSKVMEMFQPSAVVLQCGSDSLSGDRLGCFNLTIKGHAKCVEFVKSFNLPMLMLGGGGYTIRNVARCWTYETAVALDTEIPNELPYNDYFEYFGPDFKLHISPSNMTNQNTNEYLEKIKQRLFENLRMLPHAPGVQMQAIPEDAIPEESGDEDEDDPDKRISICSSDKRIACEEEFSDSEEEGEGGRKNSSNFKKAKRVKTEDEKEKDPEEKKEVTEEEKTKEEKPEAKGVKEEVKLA
Structure (SMILES),"pIC50 [1, 10]",IC50(dark)/IC50(light) [1],cell death under dark vs light conditions ([1]; in words),effect on viability in the dark [2],effect on viability when preilluminated [2],"% cis at λcis [3, 11] [%]","% trans at λtrans [3, 12] [%]",effect on viability in the dark [4],effect on viability when preilluminated [4],"λcis [5, 13] [nm]","λmax cis [5, 13] [nm]","λmax trans [5, 13] [nm]","λtrans [5, 13] [nm]",effect on viability in the dark [6],effect on viability when preilluminated [6],activity at the highest tested concentration in the dark ([7]; dark),IC50(dark)/IC50(light) ([7]; Table 4),"pIC50 [7, 14]","pIC50 [7, 15]","λmax trans [5, 19] [nm]",further results
"COc1cc(F)c(/N=N/c2c(F)cc(/C=C/C(=O)Nc3ccccc3N)cc2F)c(F)c1 [Compound 32a, (E)-N-(2-Aminophenyl)-3-(4-((E)-(2,6-difluoro-4-methoxyphenyl)diazenyl)-3,5-difluorophenyl)acrylamide]",4.43,>2.7,inducing cell death only under light conditions,little or no effect,significantly reduced the viability,77,74,little or no effect,significantly reduced the viability,550,434,358,455,little or no effect,significantly reduced the viability,no or little activity,>5.0,5.70,< 5.00,,"IC50 under illumination, in words [7]: low micromolar range"
"COc1cc(F)c(/N=N/c2c(F)cc(/C=C/C(=O)Nc3ccccc3N)cc2Cl)c(Cl)c1 [Compound 32c, (E)-N-(2-Aminophenyl)-3-(3-chloro-4-((E)-(2-chloro-6-fluoro-4-methoxyphenyl)diazenyl)-5-fluorophenyl)acrylamide]",4.43,>2.7,inducing cell death only under light conditions,little or no effect,significantly reduced the viability,68,85,little or no effect,significantly reduced the viability,550,442,358,455,little or no effect,significantly reduced the viability,no or little activity,>2.6,5.41,< 5.00,,"IC50 under illumination, in words [7]: low micromolar range"
"COc1cc(F)c(/N=N/c2c(F)cc(C(=O)Nc3ccccc3N)cc2F)c(F)c1 [Compound 38a, (E)-N-(2-Aminophenyl)-4-((2,6-difluoro-4-methoxyphenyl)diazenyl)-3,5-difluorobenzamide]",4.54,>3.4,inducing cell death only under light conditions,little or no effect,significantly reduced the viability,84,67,little or no effect,significantly reduced the viability,550,428,348,455,little or no effect,significantly reduced the viability,,≈5.9,5.77,~5.00,,"pIC50 ([1]; dark, 48 h, read-out: IC50 dark (concentration that reduces cell viability by half)): < 4.00; pIC50 ([7]; supplementary CSV, read-out: HDAC1 IC50 dark): 5.00"
"COc1ccc(/N=N/c2ccc(/C=C/C(=O)Nc3ccccc3N)cc2)cc1 [Compound 11, (E)-N-(2-Aminophenyl)-3-(4-((E)-(4-methoxyphenyl)diazenyl)phenyl)acrylamide]",,>8.3,,little or no effect,significantly reduced the viability,,,little or no effect,significantly reduced the viability,,,,,little or no effect,significantly reduced the viability,,,,,378,"pIC50 [1, 16]: 4.92; IC50 dark (concentration that reduces cell viability by half) ([1]; dark, 48 h): no activity; viability decreasing to ([1]; 48 h): 30%; % cis at λcis [3, 17]: 80%; % trans at λtrans [3, 18]: 67%; stability after multiple cis/trans isomerization cycles ([5]; 25 μM in DMSO, 380–550 nm cycles, 2 min each): stable; λcis (optimal wavelength trans to cis) [5]: 380 nm; λtrans (optimal wavelength cis to trans) [5]: 550 nm; IC50(dark)/IC50(light) [7, 20]: >50; pIC50 [7, 21]: < 5.00; pIC50 [7, 22]: 6.70"
CN(C)c1ccc(/N=N/c2ccc(C(=O)Nc3ccccc3N)cc2)cc1 [Compound 2],,,,,,,,,,,,,,,,,,,,450,activity under dark and illumination conditions ([1]; in words): inactive; activation wavelength [8]: 470 nm; half-life ([8]; room temperature in PBS): 60 μs; λcis [9]: 460^5 nm; λtrans [9]: 580^5 nm
"COc1ccc(/N=N/c2ccc(/C=C/C(=O)Nc3cc(-c4cccs4)ccc3N)cc2)cc1 [Compound 20, (E)-N-(2-Amino-5-(thiophen-2-yl)phenyl)-3-(4-((E)-(4-methoxyphenyl)diazenyl)phenyl)acrylamide]",,>14,,little or no effect,significantly reduced the viability,,,little or no effect,significantly reduced the viability,,,,,little or no effect,significantly reduced the viability,,,,,378,"pIC50 [1, 16]: 5.13; pIC50 ([1]; preillumination, 24 h, read-out: IC50 (365 nm, 24 h)): 4.89; IC50 dark (concentration that reduces cell viability by half) ([1]; dark, 48 h): no activity; viability decreasing to ([1]; 48 h): 30%; % cis at λcis [3, 17]: 63%; % trans at λtrans [3, 18]: 82%; λcis (optimal wavelength trans to cis) [5]: 380 nm; λtrans (optimal wavelength cis to trans) [5]: 550 nm; IC50(dark)/IC50(light) [7, 20]: >29; pIC50 [7, 21]: < 5.00; pIC50 [7, 22]: 6.46"
